The experiment can be described thus: Inhibition of MDC-induced chemotaxis in L1.2 cells expressing CCR4.

SMILES strings stand for the structures.

What is called IC50 is the concentration at which inhibition is half-maximal. A high value points to lower potency. As to `CCN(CC)C(C)CCCNc1nccc(NCc2ccc(Cl)cc2Cl)n1` (stereo unspecified) [N4-(2,4-dichlorobenzyl)-N2-(4-(diethylamino)pentyl)pyrimidine-2,4-diamine], the half-maximal inhibitory concentration (IC50) worked out at 5 µM.

The record behind these values is BindingDB's records for doi:10.1016/j.bmcl.2006.10.091 (Bristol Myers Squibb, 2007).
